# Results as given in article PMC10564794, “Safety and tolerability of oral vorolanib for neovascular (wet) age-related macular degeneration: a phase I, open-label study” (Eye, 2023).
# Like-named read-outs stand apart in the source and are kept apart here.
# Key:
# [1] = tested on: study eyes of participants with nAMD; assay: Efficacy: change from baseline in BCVA (ETDRS), CST and CNV characteristics; type: in vivo, human
# Protocol: The efficacy outcomes included changes from baseline in mean BCVA based on ETDRS, central subfield thickness (CST), and CNV characteristics. CST was confirmed by a […] (Heidelberg Engineering, Heidelberg, Germany) at screening, Day 14, and Day 30; then monthly for the next 6 months; and then every 3 months until the end of treatment. FA was performed by a Heidelberg retina tomograph (Heidelberg Engineering) with an Ophthavision Imaging System (MRP Group, Boston, MA) capture station at the screening, Day 90, Day 180, Day 270 and Day 360 visits.
# Because this was a phase I study, no power calculation was performed to determine sample size. All participants who had received at least one dose of vorolanib were included in the safety assessment. All participants who completed the course of vorolanib treatment were included for efficacy assessment. All participants who had received at least one dose of vorolanib and who had PK data were included in the PK analysis. Descriptive statistics were used for analyses. For quantitative data, the means ± standard deviations were selected. All statistical analyses were performed with SAS software, v. 9.4 (SAS Institute Inc., Cary, NC, USA).
# [2] = tested on: human umbilical vein endothelial cells stimulated with rHuVEGF165; parameters: method as in PMID 33610563; conditions: HUVEC stimulated with rHuVEGF165; cited from earlier work
# [3] = tested on: participants with advanced cancer; parameters: method as in PMID 33707933; conditions: US participants with advanced cancer, once daily; cited from earlier work
# [4] = Pharmacokinetics of vorolanib after single and multiple dosing; type: in vivo, human; conditions: for half-life / Cmax / Tmax / AUC / Vd/F / AUC(0-t): human, plasma, oral; for Tmax: median (range); for Vd/F: read-out: Vz/F (apparent volume of distribution); for AUC(0-t): read-out: AUC0-24h
# Protocol: In the initial PK evaluation after a single dose, blood samples from participants in the 25 mg group were collected predose (−0.5 h) and at 0.5, 1, 2, 3, 4, 6, 8, 12, 16, 24, 36, and 48 h post-dose; blood samples from participants in the 50 mg and 75 mg groups were collected predose (−0.5 h) and at 0.5, 1, 2, 3, 4, 6, 8, 12, 16, 24, 36, 48, and 72 h post-dose. During continuous dosing, blood in the 50 mg group was obtained on Day 7, Day 14 and Day 21 predose and on Day 30 predose and at 0.5, 1, 2, 3, 4, 6, 8, 12, 16 and 24 h post-dose, while blood in the 75 mg group was obtained on Day 7, Day 14 and Day 21 predose and on Day 30 predose and at 0.5, 1, 2, 3, 4, 6, 8, 12, 16, 24, 36, 48, and 72 h post-dose. The multiple dose data for 25 mg were not collected.
# All participants moved from single dosing to multiple daily dosing.
# [5] = continuous dose administration, 50 to 75 mg
# [6] = multiple doses 50 mg daily, n = 8, arithmetic mean (%CV)
# [7] = multiple doses 75 mg daily, n = 8, arithmetic mean (%CV)
smiles,measurement,setting,value
"Cc1[nH]c(/C=C2\C(=O)Nc3ccc(F)cc32)c(C)c1C(=O)N[C@H]1CCN(C(=O)N(C)C)C1 [vorolanib, Vorolanib]",Mean Change from Baseline to day 180 CST,"[1]; 25 mg cohort, N 16",−11.7 μm
same,Mean Change from Baseline to day 360 BCVA,"[1]; 25 mg cohort, N 16",+4.3 letters
same,Mean Change from Baseline to day 360 CST,"[1]; 25 mg cohort, N 16",−27.0 μm
same,Mean Change from Baseline to day 180 CST,"[1]; 50 mg cohort, N 16",−85.0 μm
same,Mean Change from Baseline to day 360 BCVA,"[1]; 50 mg cohort, N 16",+8.5 letters
same,Mean Change from Baseline to day 360 CST,"[1]; 50 mg cohort, N 16",−54.8 μm
same,Mean Change from Baseline to day 180 CST,"[1]; 75 mg cohort, N 8",−33.0 μm
same,Mean Change from Baseline to day 360 BCVA,"[1]; 75 mg cohort, N 8",+12.0 letters
same,Mean Change from Baseline to day 360 CST,"[1]; 75 mg cohort, N 8",−45.5 μm
same,Mean decrease in CNV area,"[1]; 41 participants, baseline to Day 360, range −3.8–0.2",−0.9 mm^2
same,Mean decrease in lesion area,"[1]; 41 participants, baseline to Day 360, range −4.8–0.5",−1.3 mm^2
same,Mean decrease in CNV leakage,"[1]; 41 participants, baseline to Day 360, range −10.8–0.2",−4.0 mm^2
same,Mean BCVA improvement at follow-up after treatment,[1]; 75.6% of participants who continued follow-up one month after vorolanib treatment,2.6 letters
same,Participants evaluable at Day 360 who maintained or improved vision,[1]; Day 360,12 (29.3%) participants (%)
same,Reduced CNV area,[1]; accompanying decline in CNV leakage,37.4%
same,Mean Change from Baseline to day 180 CST,"[1]; all cohorts, N 41",−48.6 μm
same,Mean Change from Baseline to day 360 CST,"[1]; all cohorts, N 41, range −258–40",−44.0 μm
same,Mean reduction in CST,"[1]; by Day 180, all participants",48.6 μm
same,Antiangiogenic effects,[2],highly antiangiogenic effects
same,Recommended dose of vorolanib monotherapy,[3],400 mg
same,Accumulation,[4]; [5],no obvious accumulation
same,Time to steady-state concentration,[4]; [5],4 days
same,Dose dependence of maximum blood concentration and area under the curve,[4]; doses of 25–50 mg after a single dose,increased linearly in a dose-dependent manner
same,half-life,"[4]; 25 mg, single dose 25 mg, n = 8, arithmetic mean (%CV)",5.9 h
same,Cmax,"[4]; 25 mg, single dose 25 mg, n = 8, arithmetic mean (%CV), read-out: Cmax",140 ng/mL
same,Tmax,"[4]; 25 mg, single dose 25 mg, n = 8, read-out: Tmax",3.03 h
same,half-life,"[4]; 50 mg, multiple doses 50 mg daily, n = 8, arithmetic mean (%CV)",4.9 h
same,Cmax,"[4]; 50 mg, multiple doses 50 mg daily, n = 8, arithmetic mean (%CV), read-out: Cmax,ss",246 ng/mL
same,Tmax,"[4]; 50 mg, multiple doses 50 mg daily, n = 8, read-out: Tmax,ss",5.03 h
same,half-life,"[4]; 50 mg, single dose 50 mg, n = 8, arithmetic mean (%CV)",10.7 h
same,Cmax,"[4]; 50 mg, single dose 50 mg, n = 8, arithmetic mean (%CV), read-out: Cmax",201 ng/mL
same,Tmax,"[4]; 50 mg, single dose 50 mg, n = 8, read-out: Tmax",6 h
same,half-life,"[4]; 75 mg, multiple doses 75 mg daily, n = 8, arithmetic mean (%CV)",7.3 h
same,Cmax,"[4]; 75 mg, multiple doses 75 mg daily, n = 8, arithmetic mean (%CV), read-out: Cmax,ss",269 ng/mL
same,Tmax,"[4]; 75 mg, multiple doses 75 mg daily, n = 8, read-out: Tmax,ss",4 h
same,half-life,"[4]; 75 mg, single dose 75 mg, n = 8, arithmetic mean (%CV)",10.3 h
same,Cmax,"[4]; 75 mg, single dose 75 mg, n = 8, arithmetic mean (%CV), read-out: Cmax",237 ng/mL
same,Tmax,"[4]; 75 mg, single dose 75 mg, n = 8, read-out: Tmax",4 h
same,half-life,"[4]; single dosing, 25–75 mg cohorts, approximately",5.9 to 10.7 h
same,AUC,[4]; [6],2180 ng·h/mL
same,Vd/F,[4]; [6],180 L
same,AUC,[4]; [7],1950 ng·h/mL
same,Vd/F,[4]; [7],436 L
same,AUC(0-t),"[4]; single dose 25 mg, n = 8, arithmetic mean (%CV)",1010 ng·h/mL
same,AUC(0-t),"[4]; single dose 50 mg, n = 8, arithmetic mean (%CV)",1730 ng·h/mL
same,AUC(0-t),"[4]; single dose 75 mg, n = 8, arithmetic mean (%CV)",1700 ng·h/mL
same,CLss/F (apparent oral clearance),[4]; [6],26.2 (40.1) L/h
same,Rac (accumulation ratio based on AUCss),[4]; [6],1.30 (31.3)
same,CLss/F (apparent oral clearance),[4]; [7],42.4 (32.7) L/h
same,Rac (accumulation ratio based on AUCss),[4]; [7],1.20 (36.2)
same,AUC in Chinese people versus Americans,"[4]; preliminary PK results, unpublished data",relatively higher AUC in Chinese people than in Americans
